The text below walks through data of patent publication US20260041695A1, “COMBINATION THERAPIES FOR TREATMENT OF BREAST CANCER” (Genentech, Inc., priority 2019, published 2026).

The subject of series [1] is MCF-7 (PIK3CA mutant E545K, ER+) breast carcinoma xenograft. As to the kind of experiment: MCF-7 xenograft efficacy. Conditions: for % TGI: G 25 mg/kg oral QD 21 days, P 50 mg/kg oral QD 21 days, F 200 mg/kg s.c. weekly 3 weeks, groups of 12 animals; for CR / PR: number of animals, groups of 12, doses as for % TGI.
Protocol: Implant 0.36 mg estradiol pellets, s.c. between the scapulae, 1-3 days prior to cell implantation.
Set up CR female NCr nu/nu mice with 1×10^7 MCF7 tumor cells in 0% Matrigel sc in mammary fat pad.
Perform a pair match when tumors reach an average size of 180-220 mm^3, and begin treatment.
Caliper Measurement: biwk to end
Endpoint TGD. Animals are monitored individually. The endpoint of the experiment is a tumor volume of 2000 mm^3 or 45 days, whichever comes first. Responders can be followed longer. When the endpoint is reached, the animals are euthanized per SOP.
For series [2] the following is noted: cited from earlier work.
Series [3] in a line: Phase Ib GDC-0077 + letrozole with or without palbociclib: pharmacokinetics. It is filed as in vivo, human.
Series [4] can be described thus: Phase I/Ib GDC-0077 + fulvestrant: pharmacokinetics and food effect. It is filed as in vivo, human. The protocol:
Safety (NCI-CTCAE v4), PK, and preliminary antitumor activity (clinical benefit rate [CBR]: RECIST v1.1 stable disease for ≥24 weeks, partial response [PR], or complete response) were assessed. The effect of a standard high-fat meal on the PK of G was evaluated after a single dose and at steady state. Relevant signaling and pharmacodynamic (PD) biomarkers were assessed using circulating tumor (ct) DNA samples.

The target in series [5] is Class I PI3K alpha isoform (Homo sapiens, UniProt P42336). Conditions: versus PI3K alpha; cited from earlier work.
Class I PI3K alpha isoform, sequence (P42336 whole entry, canonical isoform): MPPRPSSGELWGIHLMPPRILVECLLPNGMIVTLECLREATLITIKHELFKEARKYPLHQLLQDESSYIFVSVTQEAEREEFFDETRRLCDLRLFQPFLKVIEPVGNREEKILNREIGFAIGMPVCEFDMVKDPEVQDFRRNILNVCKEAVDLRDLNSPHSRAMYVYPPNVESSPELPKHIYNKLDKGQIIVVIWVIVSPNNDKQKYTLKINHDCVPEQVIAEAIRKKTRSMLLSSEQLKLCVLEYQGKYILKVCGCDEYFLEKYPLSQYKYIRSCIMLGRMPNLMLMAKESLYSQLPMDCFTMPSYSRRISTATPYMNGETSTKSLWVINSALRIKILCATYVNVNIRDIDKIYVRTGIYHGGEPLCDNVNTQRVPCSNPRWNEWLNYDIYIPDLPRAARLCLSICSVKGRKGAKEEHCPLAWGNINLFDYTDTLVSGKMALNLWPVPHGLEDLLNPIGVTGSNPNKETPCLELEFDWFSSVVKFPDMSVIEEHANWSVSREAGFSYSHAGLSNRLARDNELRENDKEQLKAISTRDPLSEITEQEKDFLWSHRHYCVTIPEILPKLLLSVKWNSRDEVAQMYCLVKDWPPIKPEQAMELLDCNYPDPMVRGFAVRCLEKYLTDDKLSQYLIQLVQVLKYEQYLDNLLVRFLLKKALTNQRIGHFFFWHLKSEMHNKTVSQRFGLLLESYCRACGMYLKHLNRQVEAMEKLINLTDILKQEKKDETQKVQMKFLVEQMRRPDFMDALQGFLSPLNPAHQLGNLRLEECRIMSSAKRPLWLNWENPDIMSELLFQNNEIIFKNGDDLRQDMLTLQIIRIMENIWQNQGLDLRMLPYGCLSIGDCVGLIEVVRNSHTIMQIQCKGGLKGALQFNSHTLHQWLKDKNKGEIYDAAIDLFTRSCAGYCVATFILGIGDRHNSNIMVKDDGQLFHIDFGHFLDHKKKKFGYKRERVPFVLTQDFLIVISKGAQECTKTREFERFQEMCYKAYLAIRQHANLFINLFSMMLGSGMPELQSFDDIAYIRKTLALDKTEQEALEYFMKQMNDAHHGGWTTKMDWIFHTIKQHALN
Class I PI3K alpha isoform, sequence (P27986 whole entry partner, canonical isoform): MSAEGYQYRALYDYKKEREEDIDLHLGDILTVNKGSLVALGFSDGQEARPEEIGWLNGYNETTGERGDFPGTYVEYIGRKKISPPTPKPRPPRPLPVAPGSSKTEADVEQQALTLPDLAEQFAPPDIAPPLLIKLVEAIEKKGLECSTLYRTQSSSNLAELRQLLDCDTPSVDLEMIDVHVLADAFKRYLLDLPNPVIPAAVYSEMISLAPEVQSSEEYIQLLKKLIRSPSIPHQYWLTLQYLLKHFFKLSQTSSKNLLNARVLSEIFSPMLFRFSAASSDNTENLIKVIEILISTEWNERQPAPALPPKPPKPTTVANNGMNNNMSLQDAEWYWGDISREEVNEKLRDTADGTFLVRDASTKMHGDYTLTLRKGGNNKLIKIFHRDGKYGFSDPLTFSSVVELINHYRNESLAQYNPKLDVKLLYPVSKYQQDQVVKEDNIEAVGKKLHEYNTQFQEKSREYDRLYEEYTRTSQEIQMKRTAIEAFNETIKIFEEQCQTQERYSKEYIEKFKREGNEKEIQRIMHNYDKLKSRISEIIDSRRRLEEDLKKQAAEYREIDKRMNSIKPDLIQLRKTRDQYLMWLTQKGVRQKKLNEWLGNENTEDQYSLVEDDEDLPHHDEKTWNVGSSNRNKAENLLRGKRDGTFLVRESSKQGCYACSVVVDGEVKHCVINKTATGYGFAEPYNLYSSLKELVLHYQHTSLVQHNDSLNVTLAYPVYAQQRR
Series [6] deals with PI3K pathway. The series can be described thus: Phase I single-agent GDC-0077: pharmacodynamics. It is filed as in vivo, human. As to the method:
Pharmacodynamic activity was assessed pre- and on-study (after 2 weeks of daily GDC-0077 treatment) with FDG-PET scans, in tumor biopsies via immunohistochemistry (IHC), and in ctDNA samples (by FoundationACT).

The subject of series [7] is PI3K pathway. The series can be described thus: Phase Ib GDC-0077 + letrozole with or without palbociclib: pharmacodynamics. It is filed as in vivo, human. As to the method:
Pharmacodynamic activity was assessed pre- and on-study (after 2 weeks of daily GDC-0077 treatment), in tumor biopsies via immunohistochemistry (IHC), and in ctDNA samples (by FoundationACT).

Series [8] deals with tumor cells bearing mutant PI3K. Conditions: cited from earlier work.
The nature of series [9]: Phase I single-agent GDC-0077: pharmacokinetics. It is filed as in vivo, human. As to the method:
To evaluate single dose pharmacokinetics (PK), frequent blood sampling was performed up to 48 hours after the initial dose at Cycle 1 Day 1. Once daily dosing was initiated from Cycle 1 Day 8 and blood sampling to evaluate PK at steady state was conducted at Cycle 1 Day 15.

Series [10] concerns locally advanced or metastatic PIK3CA-mutant solid tumors. The series can be described thus: Phase I single-agent GDC-0077: clinical activity (RECIST v1.1). It is filed as in vivo, human. The protocol:
Tumor assessments were performed by RECIST v1.1 at screening and every 8 weeks to assess preliminary anti-tumor activity.

Series [11] is described as follows: Phase I/Ib inavolisib + palbociclib + fulvestrant: pharmacokinetics. Conditions: in vivo. The arrangement: species or system human.
Where [12] appears, read: in combination with fulvestrant.
Setting [13] is: 19 patients with measurable disease.

Each structure is given as a SMILES string. Where two headings read alike, the source gives them in different places. A value given as a limit tells only on which side of the number the result lay.

Turning to `CC(=O)c1c(C)c2cnc(Nc3ccc(N4CCNCC4)cn3)nc2n(C2CCCC2)c1=O` [palbociclib, 6-acetyl-8-cyclopentyl-5-methyl-2-(5-(piperazin-1-yl)pyridin-2-ylamino)pyrido[2,3-d]pyrimidin-7(8H)-one], in series [1], the “% TGI” value turned out to be 45%, the CR was 0 and the PR was found to be 0. Further, in [2] (setting [12]), the cycle delays was 36%, the dose holds was 54% and the “patients required ≥1 dose reduction of palbociclib” value is listed as 34%. In addition, in [2] (in combination with letrozole), the cycle delays was 68%, the dose holds is listed as 70% and the “patients required ≥1 dose reduction of palbociclib” value is 36%. Also, in [3] (in vivo), the “pharmacokinetics in combination with GDC-0077 versus single-agent PK reported in literature” value was “comparable”.

Turning to `C[C@]12CC[C@@H]3c4ccc(O)cc4C[C@@H](CCCCCCCCC[S+]([O-])CCCC(F)(F)C(F)(F)F)[C@H]3[C@@H]1CC[C@@H]2O` (stereo partly drawn) [fulvestrant, (7α,17β)-7-{9-[(4,4,5,5,5-pentafluoropentyl)sulfinyl]nonyl}estra-1,3,5(10)-triene-3,17-diol], in series [1], the “% TGI” value turned out to be 52%, the CR is on record as 0 and the PR is reported as 0.

On to `C[C@H](Nc1ccc2c(c1)OCCn1cc(N3C(=O)OC[C@H]3C(F)F)nc1-2)C(N)=O` [GDC-0077, (S)-2-((2-((S)-4-(difluoromethyl)-2-oxooxazolidin-3-yl)-5,6-dihydrobenzo[f]imidazo[1,2-d][1,4]oxazepin-9-yl)amino)propanamide], for which, in [1], the “% TGI” value is 35%, the CR is recorded as 0 and the PR is given as 0. The colitis result (9 patients treated ≥5 months) was “No colitis”. Besides, the MTD (QD, single agent) was 9 mg. The molecule also came in with a Dose-limiting toxicities (at 12 mg (1 Grade 4 hyperglycemia, 1 Grade 3 fatigue)) of 2 patients. In addition, the “treatment related high-grade gastrointestinal toxicities” value (treatment-related diarrhea events all Grade 1-2) is given as “No treatment related high-grade gastrointestinal toxicities”. Further, in series [4] (in vivo), the “PK of GDC-0077 in combination with fulvestrant versus single-agent PK” value is “similar”. In [4] (standard high-fat meal, single dose and steady state), the “GDC-0077 exposures (Cmax and AUC0-24) in fasted or fed states” value is listed as “Comparable”. Also, the “fold less potent biochemical inhibition for other Class I PI3K beta, delta, and gamma isoforms” value in [5] is over 300 fold. In addition, in series [6] (baseline and after 2 weeks of daily GDC-0077), the FDG-PET scans result is on record as “metabolic responses at all dose levels evaluated”. Besides, the “PI3K pathway activity in paired tumor biopsies by IHC for phosphoproteins” value in series [6] (in vivo) is given as “Decreased”. In series [6] (over time, majority of specimens), the “ctDNA PIK3CA mutant allele frequency” value is on record as “Decreased”. For the same molecule, in series [7] (GDC-0077 with letrozole with or without palbociclib), the “PI3K pathway effectors (pAKT, pS6) in paired tumor biopsies” value is “Robust PD downregulation”. Also, the “PIK3CA mutant allele frequency by ctDNA” value in [7] (between Cycle 1 Day 1 and Cycle 1 Day 15, majority of available samples) is recorded as “decreased”. For the same molecule, in series [8], the “potency in tumor cells bearing mutant PI3K over wild type (WT) PI3K cells” value is listed as “increased potency”. Further, in series [3] (Preliminary results), the “plasma exposure of GDC-0077, single agent versus combination arms” value is reported as “similar”. The “drug-drug interaction with concomitant medications (palbociclib and letrozole)” value in [3] (in vivo) is “no drug-drug interaction”. Moreover, the “PK variability (% CV) for Cmax and AUC0-24” value in [9] (after a single dose and at steady state at MTD (9 mg)) is about 20%. Further, in series [9] (human, plasma, oral, following a single dose, read-out: Mean half-life (t1/2) (converted)), the half-life was 18.1 h. Besides, in series [9] (single and multiple doses), the “Plasma exposure versus dose” value is on record as “increased proportionally”. For the same molecule, in series [10] (setting [13]), the “best overall response rate” value is on record as 26% and the “confirmed overall response rate” value came out at 21%. In series [10] (20 patients), this molecule gave a clinical benefit rate of 45%. In addition, the clinical benefit in [10] (of 20 patients) turned out to be 9 patients. Also, in [10] (overall, 20 patients), the “best overall response rate” value came to 25%, the “confirmed PR” value was 4 patients, the “confirmed overall response rate” value is recorded as 20% and the “partial response (PR)” value was 5 patients. This molecule also showed an overall response rate in series [10] (patients with tumors harboring PIK3CA mutations (conclusions)) of 210%. Also, in [11], the “drug-drug interactions with concomitant therapies (palbociclib and fulvestrant [and metformin])” value was “no drug-drug interactions”; the “pharmacokinetics of inavolisib in combination with palbociclib+fulvestrant versus single-agent inavolisib” value is on record as “similar”.

`N#Cc1ccc(C(c2ccc(C#N)cc2)n2cncn2)cc1` [letrozole, 4,4′-((1H-1,2,4-triazol-1-yl)methylene)dibenzonitrile, reference compound]: in [3] (in vivo), the “pharmacokinetics in combination with GDC-0077 versus single-agent PK reported in literature” value is recorded as “comparable”.
